Assay [1] has as its system A-BG (Accellerase® BG from DuPont), commercial beta-glucosidase. In words: BG kinetics, pNPG hydrolysis assay with glucose as competitive inhibitor, A-BG. The assay is classed as biochemical. The settings on record: pNPG substrate, pH 5.0, 50° C. How it is done: The kinetic properties of beta glucosidase are important for cellulosic hydrolysis, since in commercial situations a wide range of substrate concentrations and different product inhibition conditions will be encountered. In this example, a Michaelis-Menten kinetics model was used to describe BG kinetics.
(§1) One pNPG unit is defined as the amount of enzyme that produces 1 μmol of pNP per min. Briefly, to determine BG activity, 25 μL of diluted enzyme in 200 mM sodium acetate buffer (pH 5.0) was mixed with 25 μL of the same buffer and 25 μL of RO water (or glucose solution for the kinetic study) and the mixture was preincubated at 50° C. for 5 min. The reaction was initiated by adding 25 μL of 10 mM pNPG in 200 mM sodium acetate buffer (pH 5.0) and the mixture was incubated at 50° C. for 10 min. The reaction was then terminated by adding 100 μL of 0.25 M sodium carbonate, and the amount of pNP produced was determined by measuring absorbance at 405 nm using a predetermined calibration curve.
The range of substrate concentration was chosen to show detectable activity at the lowest concentration and saturation stage at high substrate concentration.
(§2) To determine the kinetic properties, a competitive inhibition mechanism was hypothesized as proposed in the literature (Chauve et al, 2010; Krogh et al, 2010). The Michaelis-Menten equation with the competitive inhibition term can be expressed in Equation (1), where [S] is the substrate concentration (mM), [I] is the inhibitor concentration (mM), V is the rate of product formation (mM/min), Vmax is the maximal rate of product formation (mM/min), Km is the Michaelis-Menten constant and Ki is the inhibition constant. The turnover number, Kcat, can be calculated by Equation (2), where [Et] is the total amount of enzyme.
(§3) Conventionally, linearization methods can be used to determine the kinetic parameters based on Equation (1). Three common linear plots used are Lineweaver-Burke, Eadie-Hofstee and Hanes plots (Rogers and Gibon, 2009). However, these linearized versions of the Michaelis-Menten equation often produce substantial errors in parameter estimation. […] All of the activity data at different substrate levels and different inhibitor levels were fit simultaneously according to the full nonlinear equation for competitive enzyme inhibition as expressed in Equation (1). Thus, Vmax, Km and Ki can be determined simultaneously from this fitting process, and Km/Ki can then be calculated. Kcat can be obtained by Equation (2) and Kcat/Km can be calculated accordingly.
The above experimental data were fit in the competitive inhibition model as expressed in Equation (1) by simultaneous nonlinear regression.

Assay [2] concerns S-BG (Novozymes SP188 from Sigma), commercial beta-glucosidase. In words: BG kinetics, pNPG hydrolysis assay with glucose as competitive inhibitor, S-BG. The settings on record: pNPG substrate, pH 5.0, 50° C. It counts as biochemical.
Text: The kinetic properties of beta glucosidase are important for cellulosic hydrolysis, since in commercial situations a wide range of substrate concentrations and different product inhibition conditions will be encountered. In this example, a Michaelis-Menten kinetics model was used to describe BG kinetics. To determine these kinetic properties, BG activity assays using standard substrates pNPG and cellobiose were employed. yEdQ745-BG (wild type) and yEdQ885-BG (improved), were compared with two commercial BGs, A-BG (Accellerase®) BG from Dupont) and S-BG (Novozymes SP188 from Sigma).
as §1, with “BG activity assay using pNPG is one of the two commonly used standard assays to measure BG activity, which utilizes hydrolysis of p-nitrophenyl-β-D-glucopyranoside (pNPG) by BG into a yellow colored product, p-nitrophenol (pNP), that has a strong absorbance at 405 nm. One” for “One”
The range of substrate concentration was chosen to show detectable activity at the lowest concentration and saturation stage at high substrate concentration. The upper limit of inhibitor (glucose) level was chosen to get as close as possible to the real conditions during saccharification (˜4% w/v glucose) and have a detectable residual activity.
as §2, §3
The above experimental data were fit in the competitive inhibition model as expressed in Equation (1) by simultaneous nonlinear regression. The order of maximum velocity (Vmax) is A-BG>yEdQ885-BG>S-BG≈yEdQ745-BG. […] Nevertheless, the in-house BGs have much higher dissociation constant for inhibitor (Ki), indicating higher tolerance to product inhibition. Consistent with Vmax, the order of turnover number (Kcat) is A-BG>yEdQ885-BG>S-BG≈yEdQ745-BG. With much lower Km and much higher Kcat, A-BG has a considerably higher catalytic efficiency (Kcat/Km) than the other enzymes. The catalytic efficiency of S-BG and yEdQ885-BG is quite close, which is higher than that of yEdQ745-BG. […]

This is an account of results in patent publication US10077436B2, “Beta-glucosidase enzymes for increased biomass saccharification” (Edeniq, Inc., priority 2013, dated 2018).

In general, Km refers to the concentration of substrate that gives half-maximal velocity. On to `O=[N+]([O-])c1ccc(O[C@@H]2O[C@H](CO)[C@@H](O)[C@H](O)[C@H]2O)cc1` [pNPG, p-nitrophenyl-β-D-glucopyranoside], for which, in assay [1], the Kcat amounted to 44.9232 s⁻¹, the Kcat/Km came out at 453769.7 M⁻¹ s⁻¹, the Km was determined as 99 ± 12 µM and the Vmax is reported as 34.38 ± 0.67 U/mg. In addition, in assay [2], the Kcat was determined as 8.4 s⁻¹, the Kcat/Km was found to be 20000 M⁻¹ s⁻¹, the Km turned out to be 420 ± 60 µM and the Vmax stood at 4.20 ± 0.14 U/mg.
